Blank lines part the entries; values can stand above or below the compound they belong to. Positions of bridges follow the written chain, without caps; N, C: chain ends. Non-standard residues stand in square brackets, D forms with d. No end group written: not given here. *: point of attachment. FITC = O=C1OC2(c3ccc(O)cc3Oc3cc(O)ccc32)c2ccc(NC(=S)*)cc21
Key:
[1] = free acid; cited from earlier work
[2] = in vivo; cited from earlier work
gliomas = settings: before, at the time of or after tumor implantation; cited from earlier work
[3] = cited from earlier work
atherosclerosis lesion = experiment: Carotid atherosclerotic mouse model; assay type: in vivo
Source text: (§1) FIGS. 25A-E. Therapeutic potential in atherosclerosis animal models. (FIG. 25A) Targeting lyp-UIM peptide to atheroma by FITC conjugated peptide. (FIG. 25B). […] (FIG. 25C) Quantification for FIG. 25B, red bars represent lesion area by percentile; green bars represent macrophage percentile in different treatment. P values is indicated in the graphs.

atherosclerotic lesion = experiment: ApoE-/- mouse atherosclerosis model; settings: in vivo
Source text: as §1

[4] = Kinetic analysis and FUPI peptide distribution in vivo in LLC or B16 tumor-bearing mice
Method: FIGS. 7A-C. Pharmacokinetics of UPI peptide in ex vivo plasma and tumor vessels. (FIG. 7A) Biotinylated-UPI peptide was incubated in ex vivo plasma at 1 μg/ml concentration. The remaining biotin-labeled UPI peptide was quantified by ELISA as indicated at different time point, n=5; (FIG. 7B) FUPI peptide (10 mg/kg, one injection) was i.v.-injected into mice bearing B16 tumors. A time course was scheduled to sacrifice mice as indicated from 2-48 hrs.
FIG. 8. FUPI peptide specifically homes to tumors. B16 tumor-bearing mice were sacrificed at 24-hr time point after control (PBS) or FUPI peptide injection (10 mg/kg, i.v-injection). Tumor and major organs were stained with CD31 (red) and imaged at red channel (CD31), blue channel (DAPI) and green channel (FUPI). Note that green (FITC) is seen only in tumors. […] Other major organs (liver, lung, heart, spleen, kidney, colon, brain, etc) are free of green color, n=4; scale bar: 200 μm.
LLC or B16 tumor-bearing mice were intravenously injected with 20 mg/kg FUPI peptide then sacrificed at different time points. […] FITC and CD31 fluorescent intensity was quantified using Metamorph software. The number of FUPI and CD31-positive vessels were counted and presented as a percentage of FUPI-positive vessels-to-total CD31-positive vessels.

HUVEC^αvβ3 cells = experiment: Targeting and localization of FITC-conjugated peptides in cultured HUVEC; assay type: cell-based, human
Method: FIGS. 6A-E. Targeting and localization of UPI peptides in cultured HUVEC^αvβ3. (FIGS. 6A-C) HUVECs were co-transfected with integrins αv and β3 plasmids by electroporation (Nucleofactor device, Lonza), generating HUVEC^αvβ3 cells. 10 μM FUPI (FITC-conjugated UPI) peptide was added to HUVEC^αvβ3 cells or pcDNA transfected control HUVECs.
To ensure targeting specificity and efficacy of the UPI, the inventors treated HUVEC overexpressing αvβ3 integrin (HUVEC^αvβ3) with FITC-conjugated UPI (FUPI) or AP-UIM (FITC-AP-UIM) (Table 2). Normal quiescent endothelial cells, such as HUVEC, express endogenous αvβ3 integrin. However, compared to tumor endothelial cells this expression is considerably lower. By overexpressing αvβ3 integrin in HUVEC, the inventors distinguished peptide targeting to endothelial cells in quiescent versus tumor vasculature. Overexpression of αvβ3 integrin was monitored by FACS and Western blotting (FIGS. 6A-C). […] Given the selective nature of the UPI peptide in vitro, the inventors next validated its tumor vascular-targeting efficacy in vivo after intravenous (i.v.) administration into Lewis lung carcinoma (LLC) and B16F10 (B16) melanoma subcutaneous tumor-bearing mice. […]

[5] = system: Lewis lung carcinoma (LLC) tumors; experiment: Subcutaneous LLC tumor model; parameters: species or system mice; settings: mouse, in vivo
Source text: C56BL/6 mice and TRAMP prostate cancer models were obtained from Jackson Laboratory. SCID/NOD immune-deficient mice were purchased from Charles River Labs (Wilmington, Mass.). WT-Flk, EC-iDKO, EC-iDKO-Flk and EC-iDKO-Notch mice were generated by crossing conditional double knockout mice (EC-iDKO) with Flk-1^fl/fl or NICD^LSL mice as described in (FIGS. 13A-D) (Pasula et al., 2012; Tessneer et al., 2014). All animal protocols have been approved by the IACUC in Oklahoma Medical Research Foundation. Animal tumor models were established as follows: • (1) Subcutaneous Tumor Models (LLC, melanoma B16 and glioma U87/SCID): LLC, melanoma and glioma tumor models were established as previously described (Pasula et al., 2012). Synthetic peptides were administered at 10 mg/kg intravenously every second day beginning after small tumors were established (20-50 mm^3; approximately 12 days post implantation). Tumor volumes were monitored every other day until euthanized following IACUC tumor scoring system. • (2) TRAMP Prostate Tumor Model (Transgenic Adenocarcinoma of Mouse Prostate). […] Mortality rates were recorded. Prostate tumors were analyzed by weighing genitourinary tract (GU), H&E staining, IHC, IF staining and Western blotting as previously described (Pasula et al., 2012; Tessneer et al., 2013). Lymph nodes, lung, liver, spleen and bones were similarly analyzed for metastasis. • (3) B16 Melanoma Metastasis Model. […] Mice were sacrificed after 5 weeks and tissues (including lung, liver and lymph nodes, etc.) were harvested and analyzed for metastasis by gross morphology, H&E, IHC or IF staining, as well as Western blotting. • (4) Orthotopical Glioma Tumor Models (U87/SCID and GL261/C56BL/6). […] Tumors were monitored by MRI as previously described (Pasula et al., 2012). […] Tumor volume was analyzed by MRI every other day until the mice died or were euthanized following IACUC tumor scoring system. Mortality rates were recorded. […]

PDGFR-β = biological target: T1, PDGFR-β (Mus musculus, UniProt P05622); experiment: Biochemical pulldown assay using ex vivo tumors; assay type: binding, mice; settings: biotinylated peptide, ex vivo tumor lysates
T1 construct: from tissue; host or cells: LLC or GL261 glioma subcutaneous tumors from C57BL/6 mice
Method: (§2) (FIGS. 15A and 15C) LLC (FIG. 15A) or Glioma GL261 (FIG. 15C) subcutaneous tumors removed from C57BL/6 mice were homogenized in lysis buffer containing 50 mM Tris-HCl pH 7.5, 150 mM NaCl, 0.05% NP-40, 10% glycerol, 1× cocktail (Roche) and 20 mM NEM (N-ethylmaleimide). Lysate protein concentration was determined by BCA kit (Pierce). 2 mg of total lysate was co-incubated with 50 μg of either biotinylated UPI peptide, UPI mutant (UPI-Mut) peptide or control peptide. Neutri-Avidin beads (Invitrogen) were then added to pulldown biotinylated UPI or control peptide. These beads were subjected to two washes with lysis buffer and two washes with ½ lysis solutions. Afterwards, beads were boiled in 2× loading buffer and the supernatant was used for Western blot analysis of VEGFR2, PDGFR-β, EGFR and FGFR1; (FIGS. 15B and 15D) Quantification of peptide pulldown of VEGFR2 in LLC (FIG. 15B) and Glioma GL261 (FIG. 15D) tumors, n=5; P values are indicated in the figures.
(§3) LLC or GL261 glioma tumors was homogenized in lysis buffer containing 50 mM Tris-HCl pH7.5, 150 mM NaCl, 0.05% NP-40, 10% Glycerol, 1× cocktail, and 20 mM NEM. Protein concentration was determined by BCA kit (Pierce). 0.5-2 mg lysates were co-incubated with 100 μM biotinylated UPI or control peptides, followed by the addition of Neutri-Avidin beads (Invitrogen) for pulldown binding assay. Beads were washed twice with lysis buffer, then twice with 1:1 lysis buffer PBS. Beads were then boiled for 5 min in 2× sample loading buffer. Denatured proteins were subjected to Western blotting using anti-VEGFR2, anti-EGFR, anti-FGFR1 and anti-PDGFR-β antibodies.

EGFR = biological target: T2, EGFR (Mus musculus, UniProt Q01279); experiment: Biochemical pulldown assay using ex vivo tumors; assay type: binding, mice; settings: biotinylated peptide, ex vivo tumor lysates
T2 construct: from tissue; host or cells: LLC or GL261 glioma subcutaneous tumors from C57BL/6 mice
Method: as §2, §3

VEGFR2 = biological target: T3, VEGFR2 (Mus musculus, UniProt P35918); experiment: Biochemical pulldown assay using ex vivo tumors; assay type: binding, mice; settings: biotinylated peptide, ex vivo LLC or GL261 tumor lysates
T3 construct: from tissue; host or cells: LLC or GL261 glioma subcutaneous tumors from C57BL/6 mice
Method: as §2, §3

FGFR1 = biological target: T4, FGFR1 (Mus musculus, UniProt P16092); experiment: Biochemical pulldown assay using ex vivo tumors; assay type: binding, mice; settings: biotinylated peptide, ex vivo tumor lysates
T4 construct: from tissue; host or cells: LLC or GL261 glioma subcutaneous tumors from C57BL/6 mice
Method: as §2, §3

T1 sequence (P05622 32-1098): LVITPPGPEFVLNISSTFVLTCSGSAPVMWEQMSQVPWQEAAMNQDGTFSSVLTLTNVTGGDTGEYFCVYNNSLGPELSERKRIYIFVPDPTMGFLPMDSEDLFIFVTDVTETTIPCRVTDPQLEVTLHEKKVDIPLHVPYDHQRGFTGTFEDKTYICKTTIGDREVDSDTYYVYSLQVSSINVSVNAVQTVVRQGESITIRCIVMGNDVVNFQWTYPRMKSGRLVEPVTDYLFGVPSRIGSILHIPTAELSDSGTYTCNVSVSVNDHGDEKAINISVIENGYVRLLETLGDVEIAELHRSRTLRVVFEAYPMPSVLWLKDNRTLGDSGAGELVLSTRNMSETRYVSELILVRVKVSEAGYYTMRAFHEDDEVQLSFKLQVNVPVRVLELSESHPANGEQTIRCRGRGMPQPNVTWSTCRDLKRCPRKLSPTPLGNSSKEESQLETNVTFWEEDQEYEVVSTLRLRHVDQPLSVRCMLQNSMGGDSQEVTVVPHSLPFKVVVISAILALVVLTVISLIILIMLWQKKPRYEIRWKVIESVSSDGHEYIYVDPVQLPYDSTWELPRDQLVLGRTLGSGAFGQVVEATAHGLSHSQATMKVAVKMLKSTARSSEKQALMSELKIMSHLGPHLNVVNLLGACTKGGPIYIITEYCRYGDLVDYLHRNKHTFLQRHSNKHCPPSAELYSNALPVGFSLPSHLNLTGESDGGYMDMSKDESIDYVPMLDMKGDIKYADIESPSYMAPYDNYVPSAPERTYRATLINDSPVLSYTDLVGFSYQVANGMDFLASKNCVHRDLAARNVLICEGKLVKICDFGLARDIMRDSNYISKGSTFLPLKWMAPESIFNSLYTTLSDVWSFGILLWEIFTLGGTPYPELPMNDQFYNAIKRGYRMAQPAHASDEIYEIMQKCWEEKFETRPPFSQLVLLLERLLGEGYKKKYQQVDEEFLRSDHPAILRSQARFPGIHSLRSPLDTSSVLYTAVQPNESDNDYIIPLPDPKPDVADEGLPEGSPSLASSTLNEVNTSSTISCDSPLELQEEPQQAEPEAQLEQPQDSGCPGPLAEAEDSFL
T3 sequence (P35918 20-1345): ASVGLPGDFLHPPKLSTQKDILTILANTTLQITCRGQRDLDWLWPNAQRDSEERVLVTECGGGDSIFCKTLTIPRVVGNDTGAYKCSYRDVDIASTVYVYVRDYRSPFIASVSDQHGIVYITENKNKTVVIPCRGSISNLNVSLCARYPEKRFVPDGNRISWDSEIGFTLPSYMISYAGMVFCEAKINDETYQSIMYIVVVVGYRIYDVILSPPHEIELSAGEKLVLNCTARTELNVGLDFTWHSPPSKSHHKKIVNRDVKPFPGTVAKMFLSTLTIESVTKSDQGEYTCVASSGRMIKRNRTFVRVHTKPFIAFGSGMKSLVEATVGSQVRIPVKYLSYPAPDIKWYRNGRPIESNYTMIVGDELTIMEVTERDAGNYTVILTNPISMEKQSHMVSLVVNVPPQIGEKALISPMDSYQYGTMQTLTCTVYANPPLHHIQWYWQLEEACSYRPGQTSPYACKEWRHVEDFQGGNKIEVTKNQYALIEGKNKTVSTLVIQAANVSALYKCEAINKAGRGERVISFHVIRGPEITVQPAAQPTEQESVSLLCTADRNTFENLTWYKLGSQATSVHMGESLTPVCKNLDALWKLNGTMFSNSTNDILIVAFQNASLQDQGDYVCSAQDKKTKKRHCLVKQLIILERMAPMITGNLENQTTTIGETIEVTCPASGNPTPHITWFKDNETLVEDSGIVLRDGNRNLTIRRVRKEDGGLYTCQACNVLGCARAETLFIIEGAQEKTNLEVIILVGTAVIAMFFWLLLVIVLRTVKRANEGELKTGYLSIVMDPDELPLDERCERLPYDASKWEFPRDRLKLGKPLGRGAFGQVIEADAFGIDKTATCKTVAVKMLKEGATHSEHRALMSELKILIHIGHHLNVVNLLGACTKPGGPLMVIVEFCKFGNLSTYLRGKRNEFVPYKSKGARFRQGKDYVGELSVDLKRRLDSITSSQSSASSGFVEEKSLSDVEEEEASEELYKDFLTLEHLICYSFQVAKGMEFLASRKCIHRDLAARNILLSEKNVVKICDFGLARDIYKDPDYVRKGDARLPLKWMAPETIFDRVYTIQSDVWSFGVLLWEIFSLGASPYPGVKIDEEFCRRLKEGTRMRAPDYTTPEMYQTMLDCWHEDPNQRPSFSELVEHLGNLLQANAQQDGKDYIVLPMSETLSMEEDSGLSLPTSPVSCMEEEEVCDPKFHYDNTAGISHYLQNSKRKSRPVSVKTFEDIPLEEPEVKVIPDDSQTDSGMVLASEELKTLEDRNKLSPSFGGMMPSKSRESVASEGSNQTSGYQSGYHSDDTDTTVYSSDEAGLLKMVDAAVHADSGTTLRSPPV
T4 sequence (P16092 22-822): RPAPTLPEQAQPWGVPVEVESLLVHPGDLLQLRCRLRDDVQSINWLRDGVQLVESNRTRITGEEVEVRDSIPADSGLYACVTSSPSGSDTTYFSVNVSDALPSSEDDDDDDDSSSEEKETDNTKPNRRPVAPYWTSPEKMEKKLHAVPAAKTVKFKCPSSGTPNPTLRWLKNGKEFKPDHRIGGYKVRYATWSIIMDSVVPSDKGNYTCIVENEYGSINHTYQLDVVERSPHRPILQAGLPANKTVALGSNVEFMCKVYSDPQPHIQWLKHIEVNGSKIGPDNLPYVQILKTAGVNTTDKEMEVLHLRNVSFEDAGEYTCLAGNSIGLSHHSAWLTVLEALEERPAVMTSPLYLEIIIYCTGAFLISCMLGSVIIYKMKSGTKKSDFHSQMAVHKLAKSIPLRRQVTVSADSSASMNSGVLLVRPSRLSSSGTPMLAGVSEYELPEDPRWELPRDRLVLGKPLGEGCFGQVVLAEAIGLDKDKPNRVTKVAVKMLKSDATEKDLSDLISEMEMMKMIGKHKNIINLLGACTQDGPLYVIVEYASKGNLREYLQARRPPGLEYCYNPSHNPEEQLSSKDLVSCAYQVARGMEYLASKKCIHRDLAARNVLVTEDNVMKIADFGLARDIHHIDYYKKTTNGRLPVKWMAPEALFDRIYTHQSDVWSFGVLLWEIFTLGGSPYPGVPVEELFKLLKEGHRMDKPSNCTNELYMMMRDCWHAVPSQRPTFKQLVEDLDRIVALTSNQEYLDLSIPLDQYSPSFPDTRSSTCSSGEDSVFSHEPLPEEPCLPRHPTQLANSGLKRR

Compound: CC(C)(C)[N+]([O-])=Cc1ccc(S(=O)(=O)O)cc1S(=O)(=O)O [2,4-ds PBN, 2,4-disulfonyl phenyl-tert-butyl nitrone]
solubility in water [1]: greater than 1 gram/ml
efficacy compared to PBN [2]: unexpected increase in efficacy as compared to PBN
toxicity compared to PBN [2]: marked and highly significant decrease in toxicity as compared to PBN

Compound: CC(C)(C)[N+]([O-])=Cc1ccccc1 [PBN, phenyl N-tert-butyl nitrone]
tumor development (gliomas) (gliomas): able to control tumor development
tissue distribution ([3]; rat, in vivo): readily and rapidly distributed almost equally to all tissues
half-life ([3]; rats): about 132 minutes

Compound: CGNKRTRGCSGEEELQLQLALAMSKEE [Lyp-UIM peptide]
macrophage infiltration (atherosclerosis lesion; mouse, in vivo): reduced macrophage infiltration
atherosclerosis lesion development (atherosclerosis lesion; western diet): greatly reduced atherosclerosis lesion development
atherosclerotic lesion development (arch) (atherosclerotic lesion): significantly attenuated atherosclerotic lesion development (arch)
atherosclerotic lesion development (root) (atherosclerotic lesion): significantly attenuated atherosclerotic lesion development (root)

Compound: FUPI: FITC-conjugated UPI peptide ({FITC}-[dS]G[dE][dE][dE][dL][dQ][dL][dQ][dL][dA][dL][dA][dM][dS][dK][dE][dE][dM]G[dC][dI][dK][dS][dK][dR][dK][dC][dR]G[dD][dK]G[dP][dD][dC]; disulfide 28-36 (inferred); not fully specified)
retention within vessels of tumors after injection ([4]; B16 melanoma tumors, one i.v. injection): up to 48 hours
tissue distribution after intravenous injection ([4]; subcutaneous LLC or B16 melanoma tumors): significant concentration within tumor vasculature, but not other major organs
peptide accumulation in HUVEC^αvβ3 versus HUVEC (HUVEC^αvβ3 cells; FITC-conjugated peptide, 10 μM, 15 hr): accumulated selectively in HUVEC^αvβ3, but not in HUVEC alone
intracellular localization of accumulated peptide (HUVEC^αvβ3 cells; HUVEC^αvβ3): highly enriched at the plasma membrane

Compound: QEEEELQLALALSQSEAEEKMGCIKSKRKCRGDKGPDC [Hrs-UIM]
tumor growth in LLC tumor-bearing mice, variant peptides [5]: neither Eps15-UIM nor Hrs-UIM peptides affected tumor growth

Compound: SEEDMIEWAKRESEREEEQRMGCIKSKRKCRGDKGPDC [Eps15-UIM]
tumor growth in LLC tumor-bearing mice, variant peptides [5]: neither Eps15-UIM nor Hrs-UIM peptides affected tumor growth

binding to VEGFR2 in pulldown (VEGFR2): exhibited reduced binding to VEGFR2
Compound: UPI-Mut: UPI bearing the Q9A/A13S/K16A triple mutation in the epsin UIM, SEQ ID NO: 43 ([dS]G[dE][dE][dE][dL][dQ][dL][dA][dL][dA][dL][dS][dM][dS][dA][dE][dE][dM]G[dC][dI][dK][dS][dK][dR][dK][dC][dR]G[dD][dK]G[dP][dD][dC]; disulfide 28-36 (inferred); not fully specified)
tumor growth in LLC tumor-bearing mice, variant peptides [5]: failed to inhibit tumor growth compared to mice treated with UPI peptide
co-precipitation of PDGFR-β (PDGFR-β): neither UPI nor UPI-Mut peptide pulled down
co-precipitation of EGFR (EGFR): neither UPI nor UPI-Mut peptide pulled down
co-precipitation of FGFR1 (FGFR1): neither UPI nor UPI-Mut peptide pulled down

Reference: patent US11084852B2, “Ubiquitin interacting motif peptides as therapeutics” (OKLAHOMA MEDICAL RESEARCH FOUNDATION, priority 2015, dated 2021)
